Measurements as given in US20250205256A1 (GH RESEARCH IRELAND LIMITED, priority 2022, published 2025).

What was measured:
[1] = system: Salmonella typhimurium strains TA98, TA100, TA1535 and TA1537; assay: Bacterial mutation test, Salmonella typhimurium; format: cell-based; settings: up to 5000 μg/plate, absence and presence of rat liver S-9
Experimental: These conditions included treatments at concentrations up to 5000 μg/plate (the maximum recommended concentration according to current regulatory guidelines), in the absence and in the presence of a rat liver metabolic activation system (S-9).

[2] = Pharmacokinetics after single inhaled dose of 5-MeO-DMT (LC-MS/MS); format: in vivo, human
Experimental: Blood samples were obtained at 1; 2; 4; 7; 10; 15; 20; 30; 45 min and 1; 1.5; 2; 3; 4 hours after administration.
PK parameters were generated by algebraic analysis of the concentration versus time plots for each individual. The analysis was carried out using the software Phoenix WinNonlin 6.3.

[3] = system: patients with treatment-resistant major depressive disorder (TRD); assay: Phase 1/2 clinical trial of inhaled 5-MeO-DMT in TRD: MADRS; format: in vivo, human; settings: for mean MADRS change from baseline at day seven / mean MADRS change from baseline at day seven, percent: n=4
Excerpt: Patients were assigned to different groups.
This trial was designed in two parts.

[4] = system: patients with treatment-resistant major depressive disorder (TRD); assay: Phase 1/2 clinical trial of inhaled 5-MeO-DMT in TRD: safety and tolerability
Experimental: This trial was designed in two parts. Part A was an open-label, single-arm, single-dose Phase 1 trial with two dose levels (12 mg (n=4) and 18 mg (n=4)). […] The primary endpoint of Part B was to assess the effects on the severity of depression, as assessed by the proportion of patients in remission on day seven after dosing, defined as a MADRS total score of less than or equal to 10.

[5] = system: patient with postpartum depression (PPD); assay: Clinical trial of inhaled 5-MeO-DMT (IDR, 6 mg then 12 mg) in postpartum depression: MADRS; format: in vivo, human; settings: for Total MADRS score: baseline 29
Excerpt: (§1) The patient completed all planned visit days.

[6] = system: patient with postpartum depression (PPD); assay: Clinical trial of inhaled 5-MeO-DMT (IDR, 6 mg then 12 mg) in postpartum depression: BPRS; format: in vivo, human; settings: PPD n=1
Excerpt: as §1

[7] = system: patient with postpartum depression (PPD); assay: Clinical trial of inhaled 5-MeO-DMT in postpartum depression: safety and tolerability; format: in vivo, human; settings: PPD n=1
Excerpt: as §1

[8] = 12 mg n=4 sum, 2 h after dose vs baseline
[9] = 12 mg n=4 sum, 2 h after dose, baseline 16
[10] = 12 mg n=4 sum, Day 1, baseline 16
[11] = 12 mg n=4 sum, Day 1 vs baseline
[12] = 12 mg n=4 sum, Day 7, baseline 16
[13] = 12 mg n=4 sum, Day 7 vs baseline
[14] = IDR n=8 sum, 2 h after last dose vs baseline

For `COc1ccc2[nH]cc(CCN(C)C)c2c1` [5-MeO-DMT], the induction of mutation [1] was “did not induce mutation”, the detectability in plasma ([2]; 3 hours after inhalation, whole dose range) was “no longer detectable” and the “pharmacokinetic measurements under uptitration dosing schemes” value ([2]; compared with single doses) was “Substantially similar results were obtained”. For the same compound, the “accumulation upon repeated administration” value ([2]; repeat within 1 to 4 hours) was “No accumulation is observed”, the “MADRS Concentration Difficulties improvement” value [3, 8] was 9 and the “MADRS Inability to Feel improvement” value [3, 8] was 7. The “MADRS Inner Tension improvement” value [3, 8] was 11, the “MADRS Lassitude improvement” value [3, 8] was 6 and the “MADRS Pessimistic Thoughts improvement” value [3, 8] was 8. For the same compound, the “MADRS Pessimistic Thoughts percentage improvement” value [3, 8] was 50.00%, the “MADRS Suicidal Thoughts improvement” value [3, 8] was 5 and the “MADRS Suicidal Thoughts score” value ([3]; 12 mg n=4 sum, 2 h after dose, baseline 8) was 3. The “MADRS Inner Tension score” value ([3]; 12 mg n=4 sum, 2 h after dose, baseline 13) was 2, the “MADRS Concentration Difficulties score” value [3, 9] was 7 and the “MADRS Inability to Feel score” value [3, 9] was 9. For the same compound, the “MADRS Lassitude score” value [3, 9] was 10, the “MADRS Pessimistic Thoughts score” value [3, 9] was 8 and the “MADRS Suicidal Thoughts score” value ([3]; 12 mg n=4 sum, Day 1, baseline 8) was 5. For the same compound, the “MADRS Reduced Sleep score” value ([3]; 12 mg n=4 sum, Day 1, baseline 12) was 10, the “MADRS Inner Tension score” value ([3]; 12 mg n=4 sum, Day 1, baseline 13) was 3 and the “MADRS Concentration Difficulties score” value [3, 10] was 2. The “MADRS Inability to Feel score” value [3, 10] was 1, the “MADRS Pessimistic Thoughts score” value [3, 10] was 7 and the “MADRS Concentration Difficulties improvement” value [3, 11] was 14. The “MADRS Inability to Feel improvement” value [3, 11] was 15, the “MADRS Inner Tension improvement” value [3, 11] was 10 and the “MADRS Lassitude improvement” value [3, 11] was 16. The “MADRS Pessimistic Thoughts improvement” value [3, 11] was 9, the “MADRS Reduced Sleep improvement” value [3, 11] was 2 and the “MADRS Suicidal Thoughts improvement” value [3, 11] was 3. For the same compound, the “MADRS Suicidal Thoughts score” value ([3]; 12 mg n=4 sum, Day 7, baseline 8) was 7, the “MADRS Reduced Sleep score” value ([3]; 12 mg n=4 sum, Day 7, baseline 12) was 6 and the “MADRS Inner Tension score” value ([3]; 12 mg n=4 sum, Day 7, baseline 13) was 5. The “MADRS Concentration Difficulties score” value [3, 12] was 3, the “MADRS Inability to Feel score” value [3, 12] was 1 and the “MADRS Lassitude score” value [3, 12] was 3. The “MADRS Pessimistic Thoughts score” value [3, 12] was 8, the “MADRS Concentration Difficulties improvement” value [3, 13] was 13 and the “MADRS Inability to Feel improvement” value [3, 13] was 15. The “MADRS Inner Tension improvement” value [3, 13] was 8, the “MADRS Lassitude improvement” value [3, 13] was 13 and the “MADRS Pessimistic Thoughts improvement” value [3, 13] was 8. The “MADRS Pessimistic Thoughts percentage improvement” value [3, 13] was 50.00%, the “MADRS Reduced Sleep improvement” value [3, 13] was 6 and the “MADRS Reduced Sleep percentage improvement” value [3, 13] was 50.00%. For the same compound, the “MADRS Suicidal Thoughts improvement” value [3, 13] was 1, the “MADRS Concentration Difficulties improvement” value [3, 14] was 19 and the “MADRS Inability to Feel improvement” value [3, 14] was 24. The “MADRS Inner Tension improvement” value [3, 14] was 15, the “MADRS Lassitude improvement” value [3, 14] was 17 and the “MADRS Pessimistic Thoughts improvement” value [3, 14] was 21. For the same compound, the “MADRS Pessimistic Thoughts percentage improvement” value [3, 14] was 75.00%, the “MADRS Suicidal Thoughts improvement” value [3, 14] was 8 and the “MADRS Suicidal Thoughts score” value ([3]; IDR n=8 sum, 2 h after last dose, baseline 11) was 3. For the same compound, the “MADRS Inner Tension score” value ([3]; IDR n=8 sum, 2 h after last dose, baseline 26) was 11, the “MADRS Lassitude score” value ([3]; IDR n=8 sum, 2 h after last dose, baseline 27) was 10 and the “MADRS Pessimistic Thoughts score” value ([3]; IDR n=8 sum, 2 h after last dose, baseline 28) was 7. The “MADRS Concentration Difficulties score” value ([3]; IDR n=8 sum, 2 h after last dose, baseline 30) was 11, the “MADRS Inability to Feel score” value ([3]; IDR n=8 sum, 2 h after last dose, baseline 36) was 12 and the “MADRS Suicidal Thoughts score” value ([3]; IDR n=8 sum, Day 1, baseline 11) was 1. For the same compound, the “MADRS Reduced Sleep score” value ([3]; IDR n=8 sum, Day 1, baseline 25) was 12, the “MADRS Inner Tension score” value ([3]; IDR n=8 sum, Day 1, baseline 26) was 6 and the “MADRS Lassitude score” value ([3]; IDR n=8 sum, Day 1, baseline 27) was 5. The “MADRS Pessimistic Thoughts score” value ([3]; IDR n=8 sum, Day 1, baseline 28) was 4, the “MADRS Concentration Difficulties score” value ([3]; IDR n=8 sum, Day 1, baseline 30) was 1 and the “MADRS Inability to Feel score” value ([3]; IDR n=8 sum, Day 1, baseline 36) was 2. The “MADRS Concentration Difficulties improvement” value ([3]; IDR n=8 sum, Day 1 vs baseline) was 29, the “MADRS Inability to Feel improvement” value ([3]; IDR n=8 sum, Day 1 vs baseline) was 34 and the “MADRS Inner Tension improvement” value ([3]; IDR n=8 sum, Day 1 vs baseline) was 20. The “MADRS Lassitude improvement” value ([3]; IDR n=8 sum, Day 1 vs baseline) was 22, the “MADRS Pessimistic Thoughts improvement” value ([3]; IDR n=8 sum, Day 1 vs baseline) was 24 and the “MADRS Reduced Sleep improvement” value ([3]; IDR n=8 sum, Day 1 vs baseline) was 13. The “MADRS Reduced Sleep percentage improvement” value ([3]; IDR n=8 sum, Day 1 vs baseline) was 52.00%, the “MADRS Suicidal Thoughts improvement” value ([3]; IDR n=8 sum, Day 1 vs baseline) was 10 and the “MADRS Suicidal Thoughts score” value ([3]; IDR n=8 sum, Day 7, baseline 11) was 3. The “MADRS Reduced Sleep score” value ([3]; IDR n=8 sum, Day 7, baseline 25) was 9, the “MADRS Inner Tension score” value ([3]; IDR n=8 sum, Day 7, baseline 26) was 12 and the “MADRS Lassitude score” value ([3]; IDR n=8 sum, Day 7, baseline 27) was 3. For the same compound, the “MADRS Pessimistic Thoughts score” value ([3]; IDR n=8 sum, Day 7, baseline 28) was 3, the “MADRS Concentration Difficulties score” value ([3]; IDR n=8 sum, Day 7, baseline 30) was 9 and the “MADRS Inability to Feel score” value ([3]; IDR n=8 sum, Day 7, baseline 36) was 6. For the same compound, the “MADRS Concentration Difficulties improvement” value ([3]; IDR n=8 sum, Day 7 vs baseline) was 21, the “MADRS Inability to Feel improvement” value ([3]; IDR n=8 sum, Day 7 vs baseline) was 30 and the “MADRS Inner Tension improvement” value ([3]; IDR n=8 sum, Day 7 vs baseline) was 14. For the same compound, the “MADRS Lassitude improvement” value ([3]; IDR n=8 sum, Day 7 vs baseline) was 24, the “MADRS Pessimistic Thoughts improvement” value ([3]; IDR n=8 sum, Day 7 vs baseline) was 25 and the “MADRS Reduced Sleep improvement” value ([3]; IDR n=8 sum, Day 7 vs baseline) was 16. For the same compound, the “MADRS Reduced Sleep percentage improvement” value ([3]; IDR n=8 sum, Day 7 vs baseline) was 64.00%, the “MADRS Suicidal Thoughts improvement” value ([3]; IDR n=8 sum, Day 7 vs baseline) was 8 and the “mean MADRS change from baseline at day seven” value ([3]; Part A, 12 mg) was −21.0. The “mean MADRS change from baseline at day seven, percent” value ([3]; Part A, 12 mg) was −65%, the “patients with MADRS remission (total score ≤10) on day seven” value (from here on “patients with MADRS remission”) ([3]; Part A, 12 mg, two of four patients) was 50% and the “mean MADRS change from baseline at day seven” value ([3]; Part A, 18 mg) was −12.8. For the same compound, the “mean MADRS change from baseline at day seven, percent” value ([3]; Part A, 18 mg) was −41%, the “further patients with MADRS clinical response on day seven” value ([3]; Part A, 18 mg, one further patient of four) was 25% and the “patients with MADRS remission” value ([3]; Part A, 18 mg, one of four patients) was 25%. For the same compound, the “patients with MADRS remission” value ([3]; Part B, IDR, seven of eight patients, p<0.0001) was 87.5%, the “changes in safety laboratory analyses, vital signs, psychiatric safety assessments or measures of cognitive function” value ([4]; Part A and Part B) was “No clinically significant changes” and the “severity and outcome of ADRs” value ([4]; Part A, 12 mg and 18 mg groups) was “mild and resolved spontaneously”. For the same compound, the “patients experiencing at least one ADR” value ([4]; Part A, 12 mg single dose, n=4) was 3 of 4, the “patients experiencing at least one ADR” value ([4]; Part A, 18 mg single dose, n=4) was 3 of 4 and the SAEs ([4]; Part B, IDR) was “No SAEs were reported”. The “outcome of ADRs” value ([4]; Part B, IDR) was “All ADRs resolved spontaneously”, the “patients experiencing at least one ADR” value ([4]; Part B, IDR, 7 of 8 patients) was 87.5% and the “MADRS response (at least 50% improvement) and MADRS remission (total score ≤10) criteria” value ([5]; PPD n=1) was “fulfilled standard criteria”. For the same compound, the “time to clinical response after administration” value ([5]; PPD n=1) was no more than 2 h, the “time to clinical remission after administration” value ([5]; PPD n=1, IDR) was no more than 2 h and the “Total MADRS improvement” value ([5]; PPD n=1, 2 hr vs baseline) was 24. For the same compound, the “Total MADRS score” value ([5]; PPD n=1, 2 hr) was 5, the “MADRS Lassitude score” value ([5]; PPD n=1, Day 1, baseline 3) was 0 and the “Total MADRS score” value ([5]; PPD n=1, Day 1) was 0. The “Total MADRS improvement” value ([5]; PPD n=1, Day 1 vs baseline) was 29, the “Total MADRS score” value ([5]; PPD n=1, Day 7) was 1 and the “Total MADRS improvement” value ([5]; PPD n=1, Day 7 vs baseline) was 28. For the same compound, the “durability of clinical response” value ([5]; PPD n=1, single treatment day) was “sustained over the 7-day follow-up period”, the “BPRS Tension improvement” value ([6]; Day 1 vs baseline) was 5 and the “BPRS Tension improvement” value ([6]; Discharge vs baseline) was 5. For the same compound, the “reported adverse events (cramping left abdominal pain and headache, Day 0)” value [7] was “mild, short-lasting and resolved spontaneously”, the “tolerability of inhalation procedure” value [7] was “well tolerated with no inhalation-related adverse events” and the “ECG, safety laboratory analyses, CADSS” value ([7]; ECG 3 hours, laboratory 7 days, CADSS 3 hours, 1 day and 7 days) was “unremarkable”. For the same compound, the “changes in vital parameters” value ([7]; shortly after administration) was “temporary, clinically non-relevant increase in heart rate and blood pressure”.
